Results published in patent US20260256792A1, “TREATMENT OF CHRONIC SPONTANEOUS URTICARIA BY ADMINISTERING (R)-2-[3-[4-AMINO-3-(2-FLUORO-4-PHENOXY-PHENYL)PYRAZOLO[3,4-D]PYRIMIDIN-1-YL]PIPERIDINE-1-CARBONYL]-4-METHYL-4-[4-(OXETAN-3-YL)PIPERAZIN-1-YL]PENT-2-ENENITRILE” (priority 2023, published 2026).

Test system: moderate-to-severe chronic spontaneous urticaria (CSU)
Assay: Phase 2 CSU study: urticaria activity score over 7 days (UAS7)
Format: in vivo, human
Conditions: Omalizumab-Naïve
Text: The study comprises a 12 week, randomized, double-blind, placebo-controlled, multi-center, dose-ranging efficacy and safety phase, followed by a 40 week open label extension (OLE) phase (see FIG. 1). The study consists of three phases and an optional OLE phase. […] Clinically, CSU is characterized by the spontaneous and recurrent appearance of pruritic hives. The proposed primary endpoints were the UAS7 at Week 12 in EU and EU reference countries and the ISS7 in the US. Regardless of where a participant was from, all assessments were the same. The UAS7 score is a composite score containing both the HSS7 and the ISS7. This allowed a global assessment of the two key components of urticaria: hives and itch. […] The UAS is a validated PRO measure. […] The daily UAS scores range from 0 to 6 point/day. […] Patients were to complete the UAS using the e-diary. […] The following secondary endpoints were to be analyzed using the same approach as for the primary endpoint: • Change from baseline in UAS7 at Week 4 • Change from baseline in UAS7 at Week 12 (for US and US reference countries) • Change from baseline in ISS7 at Week 12 (except US and US reference countries) • Change from baseline in HSS7 at Week 12 The following responder secondary endpoints were to be analyzed using the Cochran-Mantel-Haenszel test adjusted by region: • Proportion of participants with UAS7<6 at Week 12 • Proportion of participants with UAS7=0 at Week 12 Participants who received selected prohibited medications and/or rescue medications were to be considered as non-responders for time points after the medication usage. For other participants, all available data including those collected during the off-treatment period were to be used to determine the responder/non-responder status. Missing data were to be considered as non-responders.

[1] = Baseline Eosinophils (10^9/L) ≥0.3, 400 mg BID
[2] = Baseline Eosinophils (10^9/L) ≥0.3, 400 mg QPM
[3] = Baseline Eosinophils (10^9/L) ≥0.3, 400 mg TID
[4] = Baseline H1-antihistamines dose 1-fold, 400 mg BID
[5] = Baseline H1-antihistamines dose 1-fold, 400 mg QPM
[6] = Baseline H1-antihistamines dose 1-fold, 400 mg TID
[7] = Baseline H1-antihistamines dose 2 to 4-fold standard dose, 400 mg BID
[8] = Baseline H1-antihistamines dose 2 to 4-fold standard dose, 400 mg QPM
[9] = Baseline H1-antihistamines dose 2 to 4-fold standard dose, 400 mg TID
[10] = Baseline ISS7 score <13, 400 mg BID
[11] = Baseline ISS7 score <13, 400 mg QPM
[12] = Baseline ISS7 score <13, 400 mg TID
[13] = Baseline ISS7 score ≥13, 400 mg BID
[14] = Baseline ISS7 score ≥13, 400 mg QPM
[15] = Baseline ISS7 score ≥13, 400 mg TID
[16] = Baseline Total IgE (IU/mL) <100, 400 mg BID
[17] = Baseline Total IgE (IU/mL) <100, 400 mg QPM
[18] = Baseline Total IgE (IU/mL) <100, 400 mg TID
[19] = Baseline Total IgE (IU/mL) <300, 400 mg BID
[20] = Baseline Total IgE (IU/mL) <300, 400 mg QPM
[21] = Baseline Total IgE (IU/mL) <300, 400 mg TID
[22] = Baseline Total IgE (IU/mL) ≥100, 400 mg BID
[23] = Baseline Total IgE (IU/mL) ≥100, 400 mg QPM
[24] = Baseline Total IgE (IU/mL) ≥100, 400 mg TID

CC(C)(C=C(C#N)C(=O)N1CCC[C@@H](n2nc(-c3ccc(Oc4ccccc4)cc3F)c3c(N)ncnc32)C1)N1CCN(C2COC2)CC1 [rilzabrutinib, (R)-2-[3-[4-amino-3-(2-fluoro-4-phenoxy-phenyl)pyrazolo[3,4-d]pyrimidin-1-yl]piperidine-1-carbonyl]-4-methyl-4-[4-(oxetan-3-yl)piperazin-1-yl]pent-2-enenitrile]
Change from Baseline in UAS7 at Week 12: Mean (SD) (Baseline Eosinophils (10^9/L) ≥0.165 (Median), 400 mg TID): −16.50 (9.30) | Change from Baseline in UAS7 at Week 12: LS Mean Diff vs. placebo (95% CI) [1]: −3.40 (−16.66, 9.86) | Change from Baseline in UAS7 at Week 12: Mean (SD) [1]: −13.11 (12.32) | Change from Baseline in UAS7 at Week 12: LS Mean (SE) [2]: −9.66 (4.84) | Change from Baseline in UAS7 at Week 12: LS Mean Diff vs. placebo (95% CI) [2]: −2.00 (−16.22, 12.21) | Change from Baseline in UAS7 at Week 12: Mean (SD) [2]: −9.69 (12.55) | Change from Baseline in UAS7 at Week 12: LS Mean (SE) [3]: −13.16 (4.09) | Change from Baseline in UAS7 at Week 12: LS Mean Diff vs. placebo (95% CI) [3]: −5.51 (−18.58, 7.57) | Change from Baseline in UAS7 at Week 12: Mean (SD) [3]: −14.65 (7.48) | Change from Baseline in UAS7 at Week 12: LS Mean (SE) [4]: −15.75 (3.11) | Change from Baseline in UAS7 at Week 12: LS Mean Diff vs. placebo (95% CI) [4]: −3.48 (−11.69, 4.73) | Change from Baseline in UAS7 at Week 12: Mean (SD) [4]: −18.22 (14.88) | Change from Baseline in UAS7 at Week 12: LS Mean (SE) [5]: −7.64 (2.73) | Change from Baseline in UAS7 at Week 12: LS Mean Diff vs. placebo (95% CI) [5]: 4.64 (−2.96, 12.23) | Change from Baseline in UAS7 at Week 12: Mean (SD) [5]: −8.61 (9.50) | Change from Baseline in UAS7 at Week 12: LS Mean (SE) [6]: −14.92 (2.59) | Change from Baseline in UAS7 at Week 12: LS Mean Diff vs. placebo (95% CI) [6]: −2.65 (−10.05, 4.76) | Change from Baseline in UAS7 at Week 12: LS Mean (SE) [7]: −12.98 (2.55) | Change from Baseline in UAS7 at Week 12: LS Mean Diff vs. placebo (95% CI) [7]: −6.42 (−13.94, 1.10) | Change from Baseline in UAS7 at Week 12: LS Mean (SE) [8]: −10.93 (2.77) | Change from Baseline in UAS7 at Week 12: LS Mean Diff vs. placebo (95% CI) [8]: −4.37 (−12.30, 3.56) | Change from Baseline in UAS7 at Week 12: Mean (SD) [8]: −12.81 (9.00) | Change from Baseline in UAS7 at Week 12: LS Mean (SE) [9]: −20.96 (3.15) | Change from Baseline in UAS7 at Week 12: LS Mean Diff vs. placebo (95% CI) [9]: −14.41 (−22.75, −6.07) | Change from Baseline in UAS7 at Week 12: Mean (SD) [9]: −24.73 (10.10) | Change from Baseline in UAS7 at Week 12: LS Mean (SE) [10]: −9.30 (4.02) | Change from Baseline in UAS7 at Week 12: LS Mean Diff vs. placebo (95% CI) [10]: −4.39 (−14.52, 5.74) | Change from Baseline in UAS7 at Week 12: Mean (SD) [10]: −10.78 (8.33) | Change from Baseline in UAS7 at Week 12: LS Mean (SE) [11]: −3.27 (5.21) | Change from Baseline in UAS7 at Week 12: LS Mean Diff vs. placebo (95% CI) [11]: 1.64 (−10.30, 13.58) | Change from Baseline in UAS7 at Week 12: Mean (SD) [11]: −5.83 (3.06) | Change from Baseline in UAS7 at Week 12: LS Mean (SE) [12]: 9.24 (6.48) | Change from Baseline in UAS7 at Week 12: LS Mean Diff vs. placebo (95% CI) [12]: −4.33 (−18.30, 9.63) | Change from Baseline in UAS7 at Week 12: Mean (SD) [12]: −10.75 (6.01) | Change from Baseline in UAS7 at Week 12: LS Mean (SE) [13]: −15.07 (2.33) | Change from Baseline in UAS7 at Week 12: LS Mean Diff vs. placebo (95% CI) [13]: −4.32 (−10.91, 2.27) | Change from Baseline in UAS7 at Week 12: Mean (SD) [13]: −15.60 (12.97) | Change from Baseline in UAS7 at Week 12: LS Mean Diff vs. placebo (95% CI) [14]: 0.28 (−6.08, 6.64) | Change from Baseline in UAS7 at Week 12: Mean (SD) [14]: −10.91 (9.59) | Change from Baseline in UAS7 at Week 12: LS Mean (SE) [15]: −18.70 (2.15) | Change from Baseline in UAS7 at Week 12: LS Mean Diff vs. placebo (95% CI) [15]: −7.95 (−14.32, −1.57) | Change from Baseline in UAS7 at Week 12: LS Mean (SE) [16]: −15.72 (3.24) | Change from Baseline in UAS7 at Week 12: LS Mean Diff vs. placebo (95% CI) [16]: −8.43 (−17.18, 0.33) | Change from Baseline in UAS7 at Week 12: Mean (SD) [16]: −16.26 (11.38) | Change from Baseline in UAS7 at Week 12: LS Mean (SE) [17]: 8.49 (3.25) | Change from Baseline in UAS7 at Week 12: LS Mean Diff vs. placebo (95% CI) [17]: −1.19 (−10.05, 7.67) | Change from Baseline in UAS7 at Week 12: LS Mean (SE) [18]: −17.40 (3.01) | Change from Baseline in UAS7 at Week 12: LS Mean Diff vs. placebo (95% CI) [18]: −10.10 (−18.54, −1.65) | Change from Baseline in UAS7 at Week 12: Mean (SD) [18]: −21.03 (13.37) | Change from Baseline in UAS7 at Week 12: LS Mean (SE) [19]: −14.78 (2.46) | Change from Baseline in UAS7 at Week 12: LS Mean Diff vs. placebo (95% CI) [19]: −6.72 (−13.41, −0.03) | Change from Baseline in UAS7 at Week 12: Mean (SD) [19]: 15.35 (12.23) | Change from Baseline in UAS7 at Week 12: LS Mean (SE) [20]: −9.07 (2.38) | Change from Baseline in UAS7 at Week 12: LS Mean Diff vs. placebo (95% CI) [20]: −1.01 (−7.60, 5.59) | Change from Baseline in UAS7 at Week 12: Mean (SD) [20]: −10.61 (9.62) | Change from Baseline in UAS7 at Week 12: LS Mean (SE) [21]: −18.19 (2.47) | Change from Baseline in UAS7 at Week 12: LS Mean Diff vs. placebo (95% CI) [21]: −10.13 (−16.83, −3.44) | Change from Baseline in UAS7 at Week 12: Mean (SD) [21]: −20.66 (12.39) | Change from Baseline in UAS7 at Week 12: LS Mean (SE) [22]: −13.17 (2.55) | Change from Baseline in UAS7 at Week 12: LS Mean Diff vs. placebo (95% CI) [22]: −1.67 (−8.84, 5.51) | Change from Baseline in UAS7 at Week 12: Mean (SD) [22]: −13.19 (12.80) | Change from Baseline in UAS7 at Week 12: LS Mean (SE) [23]: −8.97 (2.49) | Change from Baseline in UAS7 at Week 12: LS Mean Diff vs. placebo (95% CI) [23]: 2.53 (−4.52, 9.59) | Change from Baseline in UAS7 at Week 12: Mean (SD) [23]: −9.90 (9.51) | Change from Baseline in UAS7 at Week 12: LS Mean (SE) [24]: −17.08 (2.69) | Change from Baseline in UAS7 at Week 12: LS Mean Diff vs. placebo (95% CI) [24]: −5.57 (−12.83, 1.69)
